From US20150218594A1, “CELL-FREE AND MINIMIZED METABOLIC REACTION CASCADES FOR THE PRODUCTION OF CHEMICALS” (CLARIANT PRODUKTE (DEUTSCHLAND) GMBH, priority 2012, published 2015)

What was measured:
[1] = 20° C.; cited from earlier work
E. coli = details: recombinant fermentative production in E. coli; cited from earlier work
[2] = test system: artificial enzyme cascade; experiment: Solvent tolerance of the artificial enzyme cascade (glucose to ethanol with increasing isobutanol); format: biochemical
Method: A key characteristic of cell-free systems is their pronounced tolerance against higher alcohols.
All reactions were set up in 20 ml GC vials. Reaction mixtures contained 100 mM HEPES (pH 7 at 50° C.), 0.1 mM thiamine-pyrophosphate, 2.5 mM MgCl2, 25 mM D-glucose and 5 mM NAD. […] Reaction mixtures were placed in a water bath at 50° C. and gently stirred at 100 rpm.

microbial cells = details: cited from earlier work

SMILES	restricted miscibility in water [1]	isobutanol titers that induce toxic effects in the microbial production host (E. coli)	ethanol produced in the presence of 6% (v/v) isobutanol ([2]; 6% (v/v) isobutanol, in 8 h) [mM]	isobutanol concentration up to which cell-free ethanol productivity and reaction kinetics were not significantly affected ([2]; glucose to ethanol as in Example 1, 50° C.)	isobutanol concentration that results in loss of productivity of microbial cells (microbial cells)
CCCCO [n-Butanol]	7-8%	–	–	–	–
CC(C)CO [isobutanol]	9-10%	1-2 % (v/v)	1.4	up to 4 % (v/v)	ca. 1 % v/v
CCC(C)O (stereo not shown) [2-Butanol]	about 12%	–	–	–	–
